Reference: ChEMBL document CHEMBL5465560, “Selectivity Literature for EUbOPEN Chemogenomic Library” (2024)
Values belong to the compound of their own block, whether it stands above or below them.

What was measured:
[1] = molecular target: Calcium/calmodulin-dependent protein kinase kinase 2 (Homo sapiens) (UniProt Q96RR4); assay: Selectivity interaction (ActivX KiNativ screen (kinase selectivity in THP-1 cell lysates)) EUB0000639a CAMKK2; assay type: subcellular; conditions: lysate, at 0.01 µM
[2] = molecular target: AMP-activated protein kinase alpha-2/beta-2/gamma-2 (Homo sapiens) (UniProt P54646+O43741+Q9UGJ0); assay: (§1) Selectivity interaction (LanthaScreen Eu Kinase Binding Assay) EUB0001632a […]; assay type: protein-complex assay; conditions: at 10 µM
AMP-activated protein kinase alpha-2/beta-2/gamma-2 (Homo sapiens), sequence (O43741 whole entry, looked up): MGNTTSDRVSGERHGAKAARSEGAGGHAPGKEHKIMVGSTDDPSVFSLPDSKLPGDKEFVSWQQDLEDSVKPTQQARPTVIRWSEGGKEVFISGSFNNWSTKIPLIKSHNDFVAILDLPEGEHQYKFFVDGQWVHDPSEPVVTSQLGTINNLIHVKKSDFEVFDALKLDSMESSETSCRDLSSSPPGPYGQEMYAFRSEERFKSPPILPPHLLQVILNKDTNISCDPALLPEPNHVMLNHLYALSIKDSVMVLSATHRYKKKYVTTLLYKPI
AMP-activated protein kinase alpha-2/beta-2/gamma-2 (Homo sapiens), sequence (P54646 whole entry, looked up): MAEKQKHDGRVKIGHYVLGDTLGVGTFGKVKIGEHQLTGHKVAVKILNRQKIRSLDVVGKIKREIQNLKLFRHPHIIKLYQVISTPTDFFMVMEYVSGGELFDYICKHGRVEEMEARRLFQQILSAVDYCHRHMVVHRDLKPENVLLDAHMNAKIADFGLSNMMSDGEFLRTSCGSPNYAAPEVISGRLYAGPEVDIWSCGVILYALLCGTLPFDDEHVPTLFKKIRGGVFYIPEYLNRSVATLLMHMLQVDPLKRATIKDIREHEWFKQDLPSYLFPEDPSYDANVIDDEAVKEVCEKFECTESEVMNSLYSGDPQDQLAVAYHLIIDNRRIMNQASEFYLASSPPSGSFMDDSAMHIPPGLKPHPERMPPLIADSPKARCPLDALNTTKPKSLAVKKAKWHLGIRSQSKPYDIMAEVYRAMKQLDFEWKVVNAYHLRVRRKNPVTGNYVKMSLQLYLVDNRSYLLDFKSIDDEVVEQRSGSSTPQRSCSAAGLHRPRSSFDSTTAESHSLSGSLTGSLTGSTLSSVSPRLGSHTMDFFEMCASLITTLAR
AMP-activated protein kinase alpha-2/beta-2/gamma-2 (Homo sapiens), sequence (Q9UGJ0 whole entry, looked up): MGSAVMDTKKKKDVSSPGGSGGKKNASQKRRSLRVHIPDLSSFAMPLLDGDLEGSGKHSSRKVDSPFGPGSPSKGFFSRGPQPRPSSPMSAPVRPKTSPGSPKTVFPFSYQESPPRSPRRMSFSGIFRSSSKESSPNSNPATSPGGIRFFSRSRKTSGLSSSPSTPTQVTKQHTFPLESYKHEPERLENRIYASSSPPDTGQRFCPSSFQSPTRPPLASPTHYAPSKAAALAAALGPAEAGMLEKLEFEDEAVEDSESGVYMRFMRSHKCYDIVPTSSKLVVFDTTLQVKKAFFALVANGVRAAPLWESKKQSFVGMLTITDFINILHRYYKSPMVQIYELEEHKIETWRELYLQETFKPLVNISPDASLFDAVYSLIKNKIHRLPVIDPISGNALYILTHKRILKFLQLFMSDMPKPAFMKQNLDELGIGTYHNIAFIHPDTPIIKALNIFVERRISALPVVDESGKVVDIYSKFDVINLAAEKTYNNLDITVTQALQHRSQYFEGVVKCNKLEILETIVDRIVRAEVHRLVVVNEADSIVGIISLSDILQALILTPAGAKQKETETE

[3] = molecular target: AMPK alpha2/beta2/gamma1 (Homo sapiens) (UniProt P54646+O43741+P54619); assay: as §1; assay type: protein-complex assay; conditions: at 10 µM
AMPK alpha2/beta2/gamma1 (Homo sapiens), sequence (O43741 whole entry, looked up): as the sequence (O43741 whole entry, looked up) above
AMPK alpha2/beta2/gamma1 (Homo sapiens), sequence (P54619 whole entry, looked up): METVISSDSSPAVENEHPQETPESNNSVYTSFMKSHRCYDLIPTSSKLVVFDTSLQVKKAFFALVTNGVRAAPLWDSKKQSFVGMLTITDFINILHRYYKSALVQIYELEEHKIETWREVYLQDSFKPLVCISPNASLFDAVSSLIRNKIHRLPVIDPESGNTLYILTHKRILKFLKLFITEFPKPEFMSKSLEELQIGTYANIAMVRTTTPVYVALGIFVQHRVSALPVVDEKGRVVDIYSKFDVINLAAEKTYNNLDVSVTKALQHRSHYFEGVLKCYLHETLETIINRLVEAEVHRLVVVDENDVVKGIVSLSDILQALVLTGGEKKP
AMPK alpha2/beta2/gamma1 (Homo sapiens), sequence (P54646 whole entry, looked up): as the sequence (P54646 whole entry, looked up) above

[4] = molecular target: AMPK alpha1/beta2/gamma1 (Homo sapiens) (UniProt O43741+P54619+Q13131); assay: as §1; assay type: protein-complex assay; conditions: at 10 µM
AMPK alpha1/beta2/gamma1 (Homo sapiens), sequence (O43741 whole entry, looked up): as the sequence (O43741 whole entry, looked up) above
AMPK alpha1/beta2/gamma1 (Homo sapiens), sequence (P54619 whole entry, looked up): as the sequence (P54619 whole entry, looked up) above
AMPK alpha1/beta2/gamma1 (Homo sapiens), sequence (Q13131 whole entry, looked up): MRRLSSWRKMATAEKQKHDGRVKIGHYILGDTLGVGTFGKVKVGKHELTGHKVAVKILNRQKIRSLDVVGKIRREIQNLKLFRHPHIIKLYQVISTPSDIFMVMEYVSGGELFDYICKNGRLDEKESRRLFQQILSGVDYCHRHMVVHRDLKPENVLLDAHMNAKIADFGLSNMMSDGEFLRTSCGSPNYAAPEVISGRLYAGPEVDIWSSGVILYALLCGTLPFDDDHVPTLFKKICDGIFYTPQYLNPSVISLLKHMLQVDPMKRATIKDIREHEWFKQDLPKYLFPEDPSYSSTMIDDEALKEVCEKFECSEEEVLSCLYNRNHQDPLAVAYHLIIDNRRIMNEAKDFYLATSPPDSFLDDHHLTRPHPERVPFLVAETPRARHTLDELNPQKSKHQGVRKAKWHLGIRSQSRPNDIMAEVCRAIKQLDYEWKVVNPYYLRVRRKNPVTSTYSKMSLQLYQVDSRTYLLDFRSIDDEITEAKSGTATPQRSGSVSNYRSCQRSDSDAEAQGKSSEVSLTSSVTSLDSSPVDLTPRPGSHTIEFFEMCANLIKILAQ

[5] = molecular target: AMPK alpha1/beta1/gamma2 (Homo sapiens) (UniProt Q9UGJ0+Q9Y478+Q13131); assay: as §1; assay type: protein-complex assay; conditions: at 10 µM
[6] = molecular target: AMPK alpha1/beta1/gamma3 (Homo sapiens) (UniProt Q9Y478+Q13131+Q9UGI9); assay: as §1; assay type: protein-complex assay; conditions: at 10 µM
[7] = molecular target: Cyclin-dependent kinase 9 (Homo sapiens, UniProt P50750); conditions: at 10 µM
[8] = test system: T1, Discoidin domain-containing receptor 2 (Homo sapiens), Q16832 [T654M]; assay: Selectivity interaction (ProQinase) EUB0000171b DDR2
T1 sequence (whole entry): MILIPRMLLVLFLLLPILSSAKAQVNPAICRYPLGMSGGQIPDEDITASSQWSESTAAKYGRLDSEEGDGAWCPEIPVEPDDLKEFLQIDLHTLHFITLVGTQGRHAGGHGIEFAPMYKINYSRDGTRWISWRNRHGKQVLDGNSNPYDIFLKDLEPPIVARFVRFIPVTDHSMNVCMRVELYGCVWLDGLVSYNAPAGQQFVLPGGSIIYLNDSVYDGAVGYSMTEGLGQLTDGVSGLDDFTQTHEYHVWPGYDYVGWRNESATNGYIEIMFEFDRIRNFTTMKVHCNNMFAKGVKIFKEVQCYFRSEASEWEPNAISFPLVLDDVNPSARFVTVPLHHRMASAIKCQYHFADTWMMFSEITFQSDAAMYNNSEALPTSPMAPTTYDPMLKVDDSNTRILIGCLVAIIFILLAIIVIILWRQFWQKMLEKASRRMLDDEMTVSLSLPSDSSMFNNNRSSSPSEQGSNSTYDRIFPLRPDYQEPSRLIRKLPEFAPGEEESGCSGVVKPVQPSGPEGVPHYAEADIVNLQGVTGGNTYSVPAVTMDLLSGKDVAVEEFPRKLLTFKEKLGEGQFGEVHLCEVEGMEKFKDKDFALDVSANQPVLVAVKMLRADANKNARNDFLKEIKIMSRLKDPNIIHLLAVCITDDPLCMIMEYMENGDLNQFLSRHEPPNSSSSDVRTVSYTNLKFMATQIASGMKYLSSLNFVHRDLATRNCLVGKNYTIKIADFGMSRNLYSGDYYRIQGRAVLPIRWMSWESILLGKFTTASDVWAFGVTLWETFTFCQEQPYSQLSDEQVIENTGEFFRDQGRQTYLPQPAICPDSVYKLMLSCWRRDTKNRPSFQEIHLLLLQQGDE

[9] = molecular target: Myosin light chain kinase 2, skeletal/cardiac muscle (Homo sapiens) (UniProt Q9H1R3); assay: Selectivity interaction (KinomeScan (DiscoverX)) EUB0000092b MYLK2; conditions: at 10 µM
[10] = molecular target: 5'-AMP-activated protein kinase catalytic subunit alpha-1 (Homo sapiens, UniProt Q13131); assay: Selectivity interaction (KinomeScan (DiscoverX)) EUB0000311b PRKAA1; conditions: at 1 µM
[11] = molecular target: Calcium/calmodulin-dependent protein kinase type II subunit gamma (Homo sapiens) (UniProt Q13555); assay: Selectivity interaction (KinomeScan (DiscoverX)) EUB0000618a CAMK2G; conditions: at 10 µM
[12] = molecular target: Mitogen-activated protein kinase 4 (Homo sapiens) (UniProt P31152); assay: Selectivity interaction (KinomeScan (DiscoverX)) EUB0000607a MAPK4; conditions: at 10 µM
Mitogen-activated protein kinase 4 (Homo sapiens), sequence (P31152 whole entry): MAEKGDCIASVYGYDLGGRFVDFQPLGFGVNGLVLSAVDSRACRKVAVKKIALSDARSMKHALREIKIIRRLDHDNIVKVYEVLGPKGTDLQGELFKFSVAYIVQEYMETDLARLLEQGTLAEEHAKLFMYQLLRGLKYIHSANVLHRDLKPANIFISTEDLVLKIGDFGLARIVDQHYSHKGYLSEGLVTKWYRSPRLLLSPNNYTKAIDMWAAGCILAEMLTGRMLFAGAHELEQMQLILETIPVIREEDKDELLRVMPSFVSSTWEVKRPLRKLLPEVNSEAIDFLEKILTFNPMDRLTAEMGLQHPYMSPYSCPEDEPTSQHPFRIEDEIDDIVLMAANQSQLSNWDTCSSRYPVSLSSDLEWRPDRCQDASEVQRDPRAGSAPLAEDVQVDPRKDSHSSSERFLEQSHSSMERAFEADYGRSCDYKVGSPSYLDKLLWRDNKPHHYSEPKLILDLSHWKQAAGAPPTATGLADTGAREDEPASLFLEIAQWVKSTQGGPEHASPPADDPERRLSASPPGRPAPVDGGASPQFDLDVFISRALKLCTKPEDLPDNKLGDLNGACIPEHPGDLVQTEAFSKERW

[13] = molecular target: Protein arginine N-methyltransferase 8 (Homo sapiens, UniProt Q9NR22); assay: Selectivity interaction (Scintillation proximity assays) EUB0000255b PRMT8
Protein arginine N-methyltransferase 8, sequence (Q9NR22 whole entry): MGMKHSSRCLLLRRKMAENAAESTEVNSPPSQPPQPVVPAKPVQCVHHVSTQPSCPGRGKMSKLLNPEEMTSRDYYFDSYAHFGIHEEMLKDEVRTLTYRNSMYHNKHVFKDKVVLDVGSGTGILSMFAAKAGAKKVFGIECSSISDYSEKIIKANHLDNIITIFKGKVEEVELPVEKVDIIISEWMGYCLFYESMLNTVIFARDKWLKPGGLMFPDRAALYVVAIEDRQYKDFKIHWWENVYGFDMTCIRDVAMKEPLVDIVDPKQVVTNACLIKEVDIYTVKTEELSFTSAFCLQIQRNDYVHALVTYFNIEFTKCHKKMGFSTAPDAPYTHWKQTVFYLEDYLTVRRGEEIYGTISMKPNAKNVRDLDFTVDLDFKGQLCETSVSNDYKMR

- % of inhibition [1]: -0.8%
SMILES: CC[C@@H]1[C@H](F)C(=O)N[C@@H]1COc1nccc2cc(C(N)=O)c(OC)cc12 [ZIMLOVISERTIB]

- % of inhibition [2]: 1.19%
- % of inhibition [3]: -4.3%
- % of inhibition [4]: -9.67%
- % of inhibition [5]: 0.872%
- % of inhibition [6]: 2.78%
SMILES: Cn1cc(-n2cnc3c(NCc4nc5cc(Cl)c(Cl)cc5[nH]4)nc(N4CCOCC4)nc32)cn1

- % of control [7]: 100%
SMILES: CCN(CC)CCCCNc1ncc2cc(-c3cc(OC)cc(OC)c3)c(NC(=O)NC(C)(C)C)nc2n1

- % of control ([8]; at 1 µM): 89%
- % of control ([8]; at 5 µM): 70%
SMILES: C=CC(=O)Nc1cccc(C(=O)Nc2ccc(Nc3cc(-c4[nH]c(SC)nc4C)ccn3)cc2)c1

SMILES: CCC(=O)N1CCN(c2ccc(-n3c(=O)ccc4cnc5ccc(-c6cnc7ccccc7c6)cc5c43)cc2C(F)(F)F)CC1
- % of control [9]: 40%

- % of control [10]: 7.5%
SMILES: CCc1ccccc1C(=O)Nc1n[nH]c2c(C)c(F)c(C3C(C#N)=C(C)N(C)C(C)=C3C#N)cc12 [BAY-3827]

SMILES: O[C@H]1CC[C@H](Nc2ncc3nc(Nc4c(F)cc(F)cc4F)n([C@H]4CCOC4)c3n2)CC1
- % of control [11]: 100%

SMILES: CNC(=O)Nc1ccc(-c2nc(N3CC4CCC(C3)O4)c3cnn(C4CCC5(CC4)OCCO5)c3n2)cc1
- % of control [12]: 100%

SMILES: COCCN1CCC(c2cc(CN(C)C(=O)c3cccc(Oc4ccccc4)c3)ccn2)CC1
- IC50 [13]: > 10 µM
